{
  "source": "paper PMC4558152",
  "about": "“A small molecule inhibitor of atypical protein kinase C signaling inhibits pancreatic cancer cell transformed growth and invasion” (Oncotarget, 2015)",
  "target": "T1, PKCζ (Homo sapiens, UniProt Q05513)",
  "T1 construct": "gene PRKCZ",
  "T1 sequence (Q05513 1-113)": "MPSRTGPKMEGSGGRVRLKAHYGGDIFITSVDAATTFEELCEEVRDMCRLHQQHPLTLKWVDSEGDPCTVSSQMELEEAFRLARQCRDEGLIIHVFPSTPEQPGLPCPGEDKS",
  "T1 sequence (Q9NPB6 whole entry partner)": "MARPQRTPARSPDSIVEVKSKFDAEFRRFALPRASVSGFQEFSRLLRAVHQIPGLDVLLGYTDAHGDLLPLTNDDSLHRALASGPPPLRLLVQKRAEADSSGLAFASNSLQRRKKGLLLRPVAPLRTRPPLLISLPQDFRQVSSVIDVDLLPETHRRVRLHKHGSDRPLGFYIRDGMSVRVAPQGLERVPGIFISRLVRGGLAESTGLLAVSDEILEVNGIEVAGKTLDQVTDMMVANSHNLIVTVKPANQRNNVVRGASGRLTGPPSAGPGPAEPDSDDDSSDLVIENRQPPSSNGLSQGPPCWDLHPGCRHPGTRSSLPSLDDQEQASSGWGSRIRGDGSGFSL",
  "data": [
    {"smiles": "O=C(O)CC([S][Au])C(=O)O", "note": "(stereo not shown) [ATM, Aurothiomalate]", "values": [
      {"measurement": "IC50", "value": 3, "unit": "µM"}
    ]}
  ]
}
